In patent publication US7368443B2, “2,6-disubstituted piperidines and piperazine compounds” (University of Kentucky Research Foundation, priority 1999, dated 2008):
Like-named read-outs stand apart in the source and are kept apart here.

Experiments:
[1] = molecular target: T1, dopamine transporter (DAT) (Rattus norvegicus, UniProt P23977); test: [3H]Dopamine uptake assay, striatal synaptosomes; type: biochemical
T1 construct: Striata were homogenized in 20 ml of ice-cold sucrose solution; from tissue; host or cells: striatal synaptosomes
T1 sequence (P23977 whole entry): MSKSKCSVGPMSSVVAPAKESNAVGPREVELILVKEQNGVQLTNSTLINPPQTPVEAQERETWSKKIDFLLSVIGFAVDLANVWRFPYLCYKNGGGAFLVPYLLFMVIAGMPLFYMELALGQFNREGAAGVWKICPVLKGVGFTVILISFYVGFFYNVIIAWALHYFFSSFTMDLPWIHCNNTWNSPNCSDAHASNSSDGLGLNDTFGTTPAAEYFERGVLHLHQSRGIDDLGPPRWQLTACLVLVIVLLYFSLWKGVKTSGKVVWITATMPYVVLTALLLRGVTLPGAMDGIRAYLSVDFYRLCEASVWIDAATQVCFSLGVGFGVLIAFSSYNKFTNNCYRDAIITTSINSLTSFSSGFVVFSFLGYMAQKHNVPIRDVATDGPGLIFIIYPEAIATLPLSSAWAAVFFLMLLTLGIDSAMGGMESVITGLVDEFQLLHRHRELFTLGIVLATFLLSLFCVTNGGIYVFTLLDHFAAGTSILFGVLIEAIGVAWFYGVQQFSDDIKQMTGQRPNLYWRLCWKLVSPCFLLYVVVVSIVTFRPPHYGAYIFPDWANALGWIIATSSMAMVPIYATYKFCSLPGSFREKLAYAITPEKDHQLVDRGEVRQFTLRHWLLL

α4β2* nicotinic receptor = α4β2* nicotinic receptor (Rattus norvegicus, UniProt P09483+P12390); test: High affinity [3H]nicotine binding assay; set-up: The pellet containing the striatal membranes was resuspended; from tissue; host or cells: rat striatal membranes
Chain of α4β2* nicotinic receptor (P09483 31-630): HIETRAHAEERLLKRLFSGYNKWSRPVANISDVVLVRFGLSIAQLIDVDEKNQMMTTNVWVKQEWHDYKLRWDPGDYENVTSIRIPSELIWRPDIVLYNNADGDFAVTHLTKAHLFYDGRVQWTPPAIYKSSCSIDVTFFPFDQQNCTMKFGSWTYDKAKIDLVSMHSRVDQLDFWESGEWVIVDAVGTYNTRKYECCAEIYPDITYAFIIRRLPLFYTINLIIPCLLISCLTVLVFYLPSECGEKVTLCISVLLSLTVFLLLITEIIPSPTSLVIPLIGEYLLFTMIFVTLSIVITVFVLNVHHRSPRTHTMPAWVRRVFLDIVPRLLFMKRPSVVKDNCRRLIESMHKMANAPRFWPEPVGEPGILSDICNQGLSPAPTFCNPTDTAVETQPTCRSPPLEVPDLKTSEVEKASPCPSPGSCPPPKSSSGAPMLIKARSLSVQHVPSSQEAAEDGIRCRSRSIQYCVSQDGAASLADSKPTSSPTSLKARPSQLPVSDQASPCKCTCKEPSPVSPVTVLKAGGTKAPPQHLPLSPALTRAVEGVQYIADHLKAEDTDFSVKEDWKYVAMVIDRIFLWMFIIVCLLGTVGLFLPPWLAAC
Chain of α4β2* nicotinic receptor (P12390 25-500): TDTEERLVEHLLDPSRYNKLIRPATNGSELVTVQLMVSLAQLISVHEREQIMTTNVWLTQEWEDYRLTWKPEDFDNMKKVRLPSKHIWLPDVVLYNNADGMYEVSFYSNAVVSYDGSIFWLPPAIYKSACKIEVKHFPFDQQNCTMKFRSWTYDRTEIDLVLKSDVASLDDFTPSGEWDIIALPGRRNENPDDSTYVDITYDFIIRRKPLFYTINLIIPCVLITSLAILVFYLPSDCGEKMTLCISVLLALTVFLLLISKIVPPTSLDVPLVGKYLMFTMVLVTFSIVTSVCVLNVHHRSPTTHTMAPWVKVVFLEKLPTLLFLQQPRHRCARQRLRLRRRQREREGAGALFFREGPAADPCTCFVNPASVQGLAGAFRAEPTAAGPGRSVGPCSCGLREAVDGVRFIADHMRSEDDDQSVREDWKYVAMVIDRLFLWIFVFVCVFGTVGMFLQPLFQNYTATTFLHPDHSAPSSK

α7* nicotinic receptor = molecular target: T2, α7* nicotinic receptor (Rattus norvegicus, UniProt Q05941); test: [3H]Methyllycaconitine ([3H]MLA) binding assay
T2 construct: Whole rat brain (minus cortex, striatum and cerebellum) was homogenized; from tissue; host or cells: rat whole brain membranes (minus cortex, striatum and cerebellum)
T2 sequence (Q05941 23-502): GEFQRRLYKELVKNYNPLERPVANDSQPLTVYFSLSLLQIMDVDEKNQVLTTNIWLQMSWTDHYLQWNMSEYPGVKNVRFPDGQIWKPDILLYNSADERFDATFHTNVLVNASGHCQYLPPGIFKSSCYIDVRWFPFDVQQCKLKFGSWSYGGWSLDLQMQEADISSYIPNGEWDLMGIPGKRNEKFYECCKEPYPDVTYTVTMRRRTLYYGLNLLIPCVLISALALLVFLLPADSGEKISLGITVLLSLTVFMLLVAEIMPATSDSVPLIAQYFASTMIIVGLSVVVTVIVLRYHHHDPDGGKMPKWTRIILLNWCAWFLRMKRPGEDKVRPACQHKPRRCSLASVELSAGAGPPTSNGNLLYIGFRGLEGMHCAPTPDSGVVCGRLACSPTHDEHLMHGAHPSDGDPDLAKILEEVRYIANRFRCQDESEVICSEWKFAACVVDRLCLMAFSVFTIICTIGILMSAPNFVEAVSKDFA

[2] = molecular target: T3, serotonin transporter (SERT) (Rattus norvegicus, UniProt P31652); test: [3H]5-HT uptake assay, hippocampal synaptosomes; type: biochemical
T3 construct: Rat hippocampus was homogenized in 20 mL cold 0.32 M sucrose; from tissue; host or cells: rat hippocampal synaptosomes
T3 sequence (P31652 whole entry): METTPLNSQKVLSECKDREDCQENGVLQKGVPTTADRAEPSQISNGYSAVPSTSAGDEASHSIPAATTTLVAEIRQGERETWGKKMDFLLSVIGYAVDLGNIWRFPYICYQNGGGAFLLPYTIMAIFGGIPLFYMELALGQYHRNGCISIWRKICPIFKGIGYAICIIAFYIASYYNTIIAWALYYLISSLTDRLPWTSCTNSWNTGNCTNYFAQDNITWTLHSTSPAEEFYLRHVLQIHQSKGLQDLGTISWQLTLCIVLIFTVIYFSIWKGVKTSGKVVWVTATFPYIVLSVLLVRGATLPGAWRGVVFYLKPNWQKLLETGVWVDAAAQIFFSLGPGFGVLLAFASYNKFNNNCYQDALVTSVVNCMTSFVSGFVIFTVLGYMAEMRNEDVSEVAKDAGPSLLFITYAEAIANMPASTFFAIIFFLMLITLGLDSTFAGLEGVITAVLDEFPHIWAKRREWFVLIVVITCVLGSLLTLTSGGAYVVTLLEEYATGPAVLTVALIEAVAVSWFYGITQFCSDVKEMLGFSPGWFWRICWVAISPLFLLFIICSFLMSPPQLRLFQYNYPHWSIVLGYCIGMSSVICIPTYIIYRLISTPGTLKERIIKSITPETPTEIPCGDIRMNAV

[3] = test system: methamphetamine-evoked endogenous DA release from striatal slices; test: Methamphetamine-evoked endogenous DA overflow from superfused striatal slices; type: cell-based; details: read-out: Inhibition of Methamphetamine Evoked DA Overflow IC50 (Mean)
α6β2* nicotinic receptor = α6β2* nicotinic receptor (Rattus norvegicus, UniProt P12390+P43143); test: Nicotine-evoked [3H]DA overflow from superfused striatal slices; type: cell-based
Chain of α6β2* nicotinic receptor (P43143 31-493): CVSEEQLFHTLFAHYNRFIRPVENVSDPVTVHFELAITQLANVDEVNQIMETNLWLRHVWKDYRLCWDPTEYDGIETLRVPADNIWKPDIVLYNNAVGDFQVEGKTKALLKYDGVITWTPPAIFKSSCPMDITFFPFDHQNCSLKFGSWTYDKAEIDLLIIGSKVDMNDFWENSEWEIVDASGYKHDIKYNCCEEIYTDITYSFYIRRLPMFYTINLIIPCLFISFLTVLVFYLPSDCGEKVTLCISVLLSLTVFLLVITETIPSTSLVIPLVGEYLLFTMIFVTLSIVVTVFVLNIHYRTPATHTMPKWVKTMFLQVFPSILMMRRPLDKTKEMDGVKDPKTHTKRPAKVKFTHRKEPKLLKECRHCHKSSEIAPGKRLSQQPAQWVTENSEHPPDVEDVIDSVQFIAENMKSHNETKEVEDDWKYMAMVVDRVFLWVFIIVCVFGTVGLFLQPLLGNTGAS
Chain of α6β2* nicotinic receptor (P12390 25-500): as the sequence (P12390 25-500) above

[4] = Table 3, earlier study, read-out: Ki [3H]-Nicotine Binding Assay
[5] = Table 1, rat whole brain membranes, read-out: [3H]MLA Binding (Ki) α7*
[6] = Table 3, earlier study, read-out: Ki [3H]-Dopamine Uptake Assay
[7] = Table 1, rat striatal membranes, read-out: [3H]Nicotine Binding (Ki) α4β2*
[8] = Table 1, read-out: [3H]DA Uptake (Ki)
[9] = Table 1, read-out: [3H]5-HT Uptake (Ki) SERT
[10] = read-out: inhibition of nicotine-evoked [3H]DA overflow IC50

Row | SMILES | Ki (α7* nicotinic receptor; [5]) [µM] | Ki (α4β2* nicotinic receptor; [7]) [µM] | further results
1 | CN1[C@H](CCc2ccccc2)CCC[C@@H]1CC(O)c1ccccc1 (mixture of isomers) [Compound 60] |  |  | Ki ([1]; Ki [3H]-Dopamine Uptake Assay): 8.9 µM; Ki (α4β2* nicotinic receptor; [4]): 0.16 µM
2 | CN1[C@@H](C[C@H](O)c2ccccc2)CCC[C@H]1/C=C/c1ccccc1 (relative stereo) [Compound 7, N-Methyl-2R-(2S-hydroxy-2-phenethyl)-6S-trans-styrylpiperidine] | > 100 | > 100 | Ki [1, 6]: 1.3 µM; Ki (α4β2* nicotinic receptor; [4]): 4.2 µM; loss of affinity for the nicotinic receptor compared to lobeline (α4β2* nicotinic receptor; earlier study (Table 3)): 1000 fold
3 | CN1C(CC(=O)c2ccccc2)CCCC1CC(O)c1ccccc1 (stereo not drawn) [Compound 1, 2-[6-(β-hydroxyphenethyl)-1-methyl-2-piperidyl]-acetophenone, reference compound] |  |  | Ki [1, 8]: 29.4 µM; Ki [1, 6]: 45 µM; Ki [2, 9]: 25.7 µM
4 | CN1[C@@H](CC(=O)c2ccccc2)CCC[C@H]1CC(=O)c1ccccc1 [Compound 3] | 22.7 | 37.1 | Ki [1, 8]: 15.8 µM; Ki [1, 6]: 25 µM; Ki [2, 9]: 3.31 µM; Ki (α4β2* nicotinic receptor; [4]): 11 µM
5 | CN1[C@@H](C[C@@H](O)c2ccccc2)CCC[C@H]1C[C@H](O)c1ccccc1 [Compound 4, lobelanidine] | 3.29 | 3.1 | Ki [1, 8]: 33.3 µM; inhibition of DAT, potency compared with lobeline ([1]; Table 1 data): equipotently; Ki [1, 6]: 54 µM; inhibition of DAT, potency compared with lobeline ([1]; earlier study (Table 3)): equipotently; Ki [2, 9]: 25.6 µM; Ki (α4β2* nicotinic receptor; [4]): 0.93 µM
6 | CN1[C@@H](C[C@@H](O)c2ccccc2)CCC[C@H]1/C=C/c1ccccc1 [Compound 6, N-Methyl-2R-(2R-hydroxy-2-phenethyl)-6S-trans-styrylpiperidine] |  | 7.6 | Ki (α7* nicotinic receptor): 1.6 µM; Ki ([1]; read-out: [3H]DA Uptake (Ki)): 0.86 µM; Ki ([2]; [3H]5-HT Uptake (Ki) SERT): 0.04 µM; Ki ([2]; inhibition of serotonin uptake Ki): 0.01 to 0.38 µM; melting point: 104 to 105 °C
7 | CN1[C@H](C[C@H](O)c2ccccc2)CCC[C@@H]1/C=C/c1ccccc1 [Compound 8] |  | 9.8 | Ki (α7* nicotinic receptor): > 100 µM
8 | CN1[C@H](CCc2ccccc2)CCC[C@@H]1C[C@@H](O)c1ccccc1 [Compound 10, N-Methyl-2R-(2R-hydroxy-2-phenethyl)-6S-(2-phenethyl) piperidine] | 1.25 | > 100 | Ki ([1]; [3H]DA Uptake (Ki)): 6.62 µM; Ki ([2]; Table 1, data of a mixture of compound 10 and 11, read-out: [3H]5-HT Uptake (Ki) SERT): 0.01 µM; Ki ([2]; read-out: inhibition of serotonin uptake Ki): 0.01 to 0.38 µM
9 | CN1[C@H](CCc2ccccc2)CCC[C@@H]1C[C@H](O)c1ccccc1 [Compound 11, N-Methyl-2R-(2S-hydroxy-2-phenethyl)-6S-(2-phenethyl) piperidine] | > 100 | 32 | 
10 | CN1[C@@H](CCc2ccccc2)CCC[C@H]1C[C@H](O)c1ccccc1 [Compound 12] | 36.4 | 1.21 | 
11 | CN1[C@@H](/C=C/c2ccccc2)CCC[C@@H]1/C=C/c1ccccc1 [Compound 16, N-methyl-2R,6R-trans-di-trans-styryl piperidine] |  | 12.3 | IC50 ([3]; Rattus norvegicus): 0.43 to 1.25 µM; IC50 ([3]; superfused rat striatal slices): 0.43 µM; melting point: 92 to 93 °C
12 | CN1[C@@H](CCc2ccccc2)CCC[C@H]1CCc1ccccc1 [Compound 17, N-methyl-2,6-cis-di-(2-phenethyl)piperidine] | 43.1 | 77 | Ki ([1]; Ki [3H]-Dopamine Uptake Assay): 3 µM; Ki ([1]; [3H]DA Uptake (Ki)): 1.95 µM; Ki ([2]; [3H]5-HT Uptake (Ki) SERT): 1.59 µM; IC50 ([3]; Rattus norvegicus): 0.43 to 1.25 µM; IC50 ([3]; superfused rat striatal slices): 0.44 µM; Ki (α4β2* nicotinic receptor; [4]): 14.3 µM
13 | CN1[C@H](CCc2ccccc2)CCC[C@H]1CCc1ccccc1 [Compound 18, N-methyl-2S,6S-trans-di-(2-phenethyl)piperidine] | 24.3 |  | IC50 (α6β2* nicotinic receptor; [10]): 0.003 µM; Ki ([1]; [3H]DA Uptake (Ki)): 3.69 µM; Ki ([2]; [3H]5-HT Uptake (Ki) SERT): 2.92 µM; IC50 ([3]; Rattus norvegicus): > 100 µM
14 | CN1[C@@H](CCc2ccccc2)CCC[C@@H]1CCc1ccccc1 [Compound 19, N-methyl-2R,6R-trans-di-(2-phenethyl)piperidine] |  |  | IC50 ([3]; Rattus norvegicus): > 100 µM
15 | c1ccc(CC[C@H]2CCC[C@@H](CCc3ccccc3)N2)cc1 [Compound 25, 2,6-cis-diphenethylpiperidine] |  | > 100 | Ki (α7* nicotinic receptor): > 100 µM; IC50 (α6β2* nicotinic receptor; Table 1, inhibition of 10 μM S(−)-nicotine, NI: no inhibition, read-out: Inhibition of Nicotine-Evoked [3H]DA Overflow (IC50) α6β2*): 0.1 µM; IC50 (α6β2* nicotinic receptor; [10]): 0.1 to 1 µM; Ki [1, 8]: 1.03 µM; Ki [2, 9]: 2.51 µM
16 | CCN1[C@@H](CCc2ccccc2)CCC[C@H]1CCc1ccccc1 [Compound 26, N-ethyl-2,6-cis-diphenethylpiperidine] |  | > 100 | Ki (α7* nicotinic receptor): > 100 µM
17 | CCCN1[C@@H](CCc2ccccc2)CCC[C@H]1CCc1ccccc1 [Compound 27, N-(n-propyl)-2,6-cis-diphenethylpiperidine] |  | > 100 | Ki (α7* nicotinic receptor): > 100 µM
18 | c1cc2c(cc1CC[C@H]1CCC[C@@H](CCc3ccc4c(c3)OCO4)N1)OCO2 [Compound 28] | > 100 | > 100 | 

Row | SMILES | Ki (α7* nicotinic receptor; [5]) [µM] | Ki (α4β2* nicotinic receptor; [7]) [µM] | further results
19 | Fc1ccccc1CC[C@H]1CCC[C@@H](CCc2ccccc2F)N1 [Compound 30, 2,6-cis-di-(o-fluorophenethyl)piperidine] | > 100 | > 100 | 
20 | CN1[C@@H](CCc2ccccc2F)CCC[C@H]1CCc1ccccc1F [Compound 31, N-methyl-2,6-cis-di-(o-fluorophenethyl)piperidine] | > 100 | > 100 | 
21 | Fc1cccc(CC[C@H]2CCC[C@@H](CCc3cccc(F)c3)N2)c1 [Compound 32, 2,6-cis-di-(m-fluorophenethyl)piperidine] | > 100 |  | 
22 | CN1[C@@H](CCc2cccc(F)c2)CCC[C@H]1CCc1cccc(F)c1 [Compound 33, N-methyl-2,6-cis-di-(m-fluorophenethyl)piperidine] | > 100 | > 100 | 
23 | Fc1ccc(CC[C@H]2CCC[C@@H](CCc3ccc(F)cc3)N2)cc1 [Compound 34, 2,6-cis-di-(p-fluorophenethyl)piperidine] | > 100 | > 100 | 
24 | CN1[C@@H](CCc2ccc(F)cc2)CCC[C@H]1CCc1ccc(F)cc1 [Compound 35, N-methyl-2,6-cis-di-(p-fluorophenethyl)piperidine] | > 100 | > 100 | 
25 | COc1ccccc1CC[C@H]1CCC[C@@H](CCc2ccccc2OC)N1 [Compound 36, 2,6-cis-di-(o-methoxyphenethyl)piperidine] | > 100 | > 100 | 
26 | COc1cccc(CC[C@H]2CCC[C@@H](CCc3cccc(OC)c3)N2)c1 [Compound 38, 2,6-cis-di-(m-methoxyphenethyl)piperidine] | > 100 | > 100 | 
27 | COc1ccc(CC[C@H]2CCC[C@@H](CCc3ccc(OC)cc3)N2)cc1 [Compound 40, 2,6-cis-di-(p-methoxyphenethyl)piperidine] | > 100 | > 100 | 
28 | COc1ccc(CC[C@H]2CCC[C@@H](CCc3ccc(OC)cc3)N2C)cc1 [Compound 41, N-methyl-2,6-cis-di-(p-methoxyphenethyl)piperidine] | > 100 | > 100 | 
29 | Cc1ccc(CC[C@H]2CCC[C@@H](CCc3ccc(C)cc3)N2)cc1 [Compound 42, 2,6-cis-di-(p-methylphenethyl)piperidine] | > 100 | > 100 | 
30 | Cc1ccc(CC[C@H]2CCC[C@@H](CCc3ccc(C)cc3)N2C)cc1 [Compound 43, N-methyl-2,6-cis-di-(p-methylphenethyl)piperidine] | > 100 |  | 
31 | FC(F)(F)c1cccc(CC[C@H]2CCC[C@@H](CCc3cccc(C(F)(F)F)c3)N2)c1 [Compound 44, 2,6-cis-di-(m-trifluoromethylphenethyl)piperidine] | > 100 | > 100 | 
32 | CN1[C@@H](CCc2cccc(C(F)(F)F)c2)CCC[C@H]1CCc1cccc(C(F)(F)F)c1 [Compound 45, N-methyl-2,6-cis-di-(m-trifluoromethylphenethyl)piperidine] | > 100 | > 100 | 
33 | OCc1ccc(CC[C@H]2CCC[C@@H](CCc3ccc(CO)cc3)N2)cc1 [Compound 48, 2,6-cis-di-(p-hydroxymethylphenethyl)piperidine] | > 100 | > 100 | 
34 | CC(=O)OCc1ccc(CC[C@H]2CCC[C@@H](CCc3ccc(COC(C)=O)cc3)N2)cc1 [Compound 49, 2,6-cis-di-(p-acetoxymethylphenethyl)piperidine] | > 100 | > 100 | 
35 | Clc1ccc(CC[C@H]2CCC[C@@H](CCc3ccc(Cl)cc3Cl)N2)c(Cl)c1 [Compound 50, 2,6-cis-di-(2,4-dichlorophenethyl)piperidine] | > 100 | > 100 | 
36 | CN1[C@@H](CCc2ccc(Cl)cc2Cl)CCC[C@H]1CCc1ccc(Cl)cc1Cl [Compound 51, N-methyl-2,6-cis-di-(2,4-dichlorophenethyl)piperidine] | > 100 | > 100 | 
